Measurements as given in US20070248633A1, “COMPOSITIONS CONTAINING A HYDROXYLATED DIPHENYLMETHANE COMPOUND, METHODS OF USE” (L'OREAL, priority 2006, published 2007).

Assay: Tests of solubilization of a hydroxylated diphenylmethane compound of formula (I) in solubilizers
Format: physicochemical
Details: for % max solubility of the hydroxylated diphenylmethane compound of formula (I): optionally heated to 45° C., stirred one hour
Procedure: The compound Phenylethylbenzendiol marketed under the name Symwhite® by Symrise is used as hydroxylated diphenylmethane compound of formula (I).
This compound is weighed and placed in a sealed specimen tube.
Several solubilizers are tested: 10 ml of solubilizer are placed in a beaker and the compound Phenylethylbenzendiol is added mg per mg. The suspension, optionally heated to 45° C., is stirred by magnetic stirring for one hour.
The dissolution or non-dissolution of the hydroxylated diphenylmethane compound of formula (I), and its variation over time are then monitored.
The non-solubility of the hydroxylated diphenylmethane compound of formula (I) in the solubilizer is macroscopically characterized by a precipitate or just a cloudy solution, and microscopically by the presence of crystals.

amount solubilized (solubilizer: 2-octyldodecanol): more than 20 % by weight
amount solubilized (solubilizer: Dicaprylyl carbonate): more than 20 % by weight
amount solubilized (solubilizer: dimethyl isosorbide): more than 20 % by weight
amount solubilized (solubilizer: isopropyl N-lauroylsarcosinate (remainder of the solution consisting of the solubilizer)): up to 42 % by weight
amount solubilized (solubilizer: octyl methoxycinnamate): more than 20 % by weight
% max solubility of the hydroxylated diphenylmethane compound of formula (I) (solvent: 2-Octyldodecanol (EUTANOL G from COGNIS)): 22.52%
% max solubility of the hydroxylated diphenylmethane compound of formula (I) (solvent: Apricot oil (APRICOT KERNEL OIL from DESERT WHALE)): 10.00%
% max solubility of the hydroxylated diphenylmethane compound of formula (I) (solvent: Apricot oil (APRICOT KERNEL OIL from DESERT WHALE), listed as hydroxylated diphenylmethane compound (I)): ≤ 10%
% max solubility of the hydroxylated diphenylmethane compound of formula (I) (solvent: Dicaprylyl carbonate (CETIOL CC from COGNIS)): 26.74%
% max solubility of the hydroxylated diphenylmethane compound of formula (I) (solvent: Dimethyl isosorbide (ARLASOLVE DMI from UNIQEMA)): 31.30%
% max solubility of the hydroxylated diphenylmethane compound of formula (I) (solvent: Hydrogenated isoparaffin (PARLEAM from NOF CORPORATION), paraffin oil): not soluble
% max solubility of the hydroxylated diphenylmethane compound of formula (I) (solvent: Hydrogenated isoparaffin (PARLEAM from NOF CORPORATION), paraffin oil, listed as hydroxylated diphenylmethane compound (I)): does not make it possible to solubilize
% max solubility of the hydroxylated diphenylmethane compound of formula (I) (solvent: Isopropyl N-lauroylsarcosinate (ELDEW SL 205 from AJINOMOTO)): 42.00%
% max solubility of the hydroxylated diphenylmethane compound of formula (I) (solvent: Octyl methoxycinnamate (PARSOL MCX from GIVAUDAN (DSM Nutritional Products))): 26.00%
SMILES: CC(c1ccccc1)c1ccc(O)cc1O (centres unmarked) [4-(1-phenylethyl)-1,3-benzenediol]
